Experimental data from ChEMBL document CHEMBL1201862, “PubChem BioAssay data set” (2004).
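Method: 48-hour compound exposure of cells in 96-well plates, five concentrations, linear interpolation of endpoints. GI50 is the concentration that inhibits growth by half.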 The source made the active and inactive calls. Cut-off read from the data, not from the text of the source: active = GI50 up to about 1.1 µM and inactive = higher.

How the values were obtained:
Assay in all cases: NCI-60 cell line screen, 48 h
[1] = system: TK-10
[2] = system: MDA-N
[3] = system: SF-295
[4] = system: SN12C
[5] = system: M14
[6] = system: T47D
[7] = system: UACC-62
[8] = system: NCI-H226
[9] = system: OVCAR-8
[10] = system: OVCAR-4
[11] = system: SNB-75
[12] = system: NCI-H460
[13] = system: A549
[14] = system: HT-29
[15] = system: HCT-116
[16] = system: OVCAR-5
[17] = system: CCRF-CEM
[18] = system: SK-OV-3
[19] = system: UACC-257
[20] = system: SR
[21] = system: RPMI-8226
[22] = system: HOP-92
[23] = system: NCI-H23
[24] = system: SK-MEL-2
[25] = system: MCF7
[26] = system: NCI/ADR-RES
[27] = system: SNB-19
[28] = system: K562
[29] = system: 786-0
[30] = system: EKVX
[31] = system: MDA-MB-435
[32] = system: HCC 2998
[33] = system: SW-620
[34] = system: NCI-H522
[35] = system: A498
[36] = system: ACHN
[37] = system: DU-145
[38] = system: COLO 205
[39] = system: BT-549
[40] = system: LOX IMVI
[41] = system: SK-MEL-5
[42] = system: SF-539
[43] = system: HL-60
[44] = system: RXF 393
[45] = system: HOP-62
[46] = system: MDA-MB-231
[47] = system: IGROV-1
[48] = system: CAKI-1
[49] = system: PC-3
[50] = system: MOLT-4
[51] = system: UO-31
[52] = system: SK-MEL-28
[53] = system: SF-268
[54] = system: U-251
[55] = system: KM12
[56] = system: Hs-578T
[57] = system: HCT-15
[58] = system: OVCAR-3

Compound: O=CNNC(=O)CSc1nc2ccc(I)cc2c(=O)n1Cc1ccccc1
- GI50 [1]: 38.6 µM (inactive)
- GI50 [2]: 32.3 µM (inactive)
- GI50 [3]: 40.6 µM (inactive)
- GI50 [4]: 28.4 µM (inactive)
- GI50 [5]: 31.6 µM (inactive)
- GI50 [6]: 33.4 µM (inactive)
- GI50 [7]: 20.3 µM (inactive)
- GI50 [8]: 49.3 µM (inactive)
- GI50 [9]: 46.5 µM (inactive)
- GI50 [10]: 40.4 µM (inactive)
- GI50 [11]: 45 µM (inactive)
- GI50 [12]: 20 µM (inactive)
- GI50 [13]: 37.4 µM (inactive)
- GI50 [14]: 34.9 µM (inactive)
- GI50 [15]: 20.4 µM (inactive)
- GI50 [16]: 61.8 µM (inactive)
- GI50 [17]: 23.7 µM (inactive)
- GI50 [18]: 49.7 µM (inactive)
- GI50 [19]: 22.9 µM (inactive)
- GI50 [20]: 32.2 µM (inactive)
- GI50 [21]: < 0.01 µM (active)
- GI50 [22]: 25.4 µM (inactive)
- GI50 [23]: 36.7 µM (inactive)
- GI50 [24]: 20.9 µM (inactive)
- GI50 [25]: 37.2 µM (inactive)
- GI50 [26]: 31.3 µM (inactive)
- GI50 [27]: 46.6 µM (inactive)
- GI50 [28]: 8.79 µM (inactive)
- GI50 [29]: 31.3 µM (inactive)
- GI50 [30]: 23.9 µM (inactive)
- GI50 [31]: 40.5 µM (inactive)
- GI50 [32]: 26.8 µM (inactive)
- GI50 [33]: 44.8 µM (inactive)
- GI50 [34]: 20.9 µM (inactive)
- GI50 [35]: 37.9 µM (inactive)
- GI50 [36]: 34.8 µM (inactive)
- GI50 [37]: 43.7 µM (inactive)
- GI50 [38]: 17.9 µM (inactive)
- GI50 [39]: 41.7 µM (inactive)
- GI50 [40]: 25.4 µM (inactive)
- GI50 [41]: 18.6 µM (inactive)
- GI50 [42]: 34.6 µM (inactive)
- GI50 [43]: 47.5 µM (inactive)
- GI50 [44]: 29.1 µM (inactive)
- GI50 [45]: 37.1 µM (inactive)
- GI50 [46]: 29.3 µM (inactive)
- GI50 [47]: 32.3 µM (inactive)
- GI50 [48]: 22.2 µM (inactive)
- GI50 [49]: 39 µM (inactive)
- GI50 [50]: 0.361 µM (active)
- GI50 [51]: 1.72 µM (inactive)
- GI50 [52]: 79.8 µM (inactive)
- GI50 [53]: 35.4 µM (inactive)
- GI50 [54]: 36.6 µM (inactive)
- GI50 [55]: 33.4 µM (inactive)
- GI50 [56]: 34 µM (inactive)
- GI50 [57]: 40.7 µM
- GI50 [58]: 21.8 µM (inactive)
